Measured values published in patent publication US20230217926A1, “SELECTIVE HERBICIDES BASED ON SUBSTITUTED ISOXAZOLIN CARBOXAMIDES AND ISOXADIFEN-ETHYL” (BAYER AKTIENGESELLSCHAFT, priority 2020, published 2023).

Columns and labels:
TRZAS Triso [1] = experiment: Safener seed treatment, pre-emergence herbicide, crop damage; format: in vivo, spring wheat; design: key to Reduction [Difference]: % crop damage without safener minus % damage with safener; details: HER 15 g a.i./ha pre-emergence; for Reduction [%] / Reduction [Difference]: isoxadifen-ethyl 0.25 g a.i./kg seed; for HER effect + SAF: isoxadifen-ethyl seed treatment 0.25 g a.i./kg seed; for HER effect: no safener
Method: (§1) For the safener seed treatment, sufficient seeds of the respective crops (spring wheat, TRZAS; spring barley, HORVS; maize, ZEAMA) were weighed into screw top glass bottles approximately twice the volume of the seeds.
(§2) The specified safeners, formulated as wettable powder (WP) were weighed out so that the specified rates (g a.i./kg seed) would be obtained, dissolved in water (1 ml water per 10 g of seeds), and added to the seeds to produce a slurry.
(§3) The bottles were capped and then placed in an overhead shaker (set at medium speed for ca. 60 minutes) so that the seeds were evenly coated with the slurry. The bottles were uncapped and the seeds were either placed on paper and dried for an interval of 3-4 hours prior to sowing, or directly sown. Seeds were placed in sandy loam soil in pots of a diameter of 7-8 cm, and covered with soil.
(§4) Pre-emergence application of the specified herbicides was done subsequently, on two sets of plants: a) seed treatment with safener, as described above
(§5) The herbicides were formulated as WP and was sprayed onto the soil surface as an aqueous suspension at an equivalent water application rate of 300 l/ha.
(§6) After application, the test plants were kept in the greenhouse under good growth conditions. At intervals up to 4 weeks after application (=28 days after treatment; DAT), % crop damage observed on the treated plants was scored visually in comparison to control plants that had not received any safener or herbicide treatment.
(§7) Values in the table below are mean values of at least 2 replicates.
Reduction[Difference]=herbicide damage without safener−herbicide damage with safener Reduction[%]=(Reduction[Difference]*100)/herbicide damage without safener a) Plant Species, Variety: TRZAS Triso, Safener (SAF): Isoxadifen-Ethyl

ZEAMA Sileno = experiment: as above; format: in vivo, maize; design: key to Reduction [Difference]: % crop damage without safener minus % damage with safener; details: for Reduction [%] / Reduction [Difference]: isoxadifen-ethyl 0.25 g a.i./kg seed; for HER effect + SAF: isoxadifen-ethyl seed treatment 0.25 g a.i./kg seed; for HER effect: no safener
HORVS Montoya [2] = experiment: Tank-mix post-emergence crop damage, greenhouse, visual assessment; format: in vivo, spring barley; details: 10 DAT; for Reduction [%] / Reduction [Difference]: isoxadifen-ethyl 50 g a.i./ha; for HER effect: no safener
Method: (§8) Seeds of crops (spring wheat, TRZAS; spring barley, HORVS; maize, ZEAMA) were placed in sandy loam soil in peat pots, covered with soil and cultivated in a greenhouse under good growth conditions. Two to three weeks after sowing, the test plants were treated at the 1 to 3-leaf stage. The herbicide/safener active compound combinations according to the invention, formulated as wettable powders or emulsion concentrates, and, in parallel tests, the correspondingly formulated individual active compounds were sprayed onto the green parts of the plants in various dosages using an amount of water of 300 l/ha (converted).
(§9) The pots were returned under good growing conditions in a glasshouse and a visual assessment of herbicidal effects was made at intervals from 1 to 3 weeks after herbicide application (DAT=days after treatment). Assessment was on a percentage basis in comparison with untreated control plants (0%=no injury, 100%=complete kill).
(§10) Reduction[Difference]=herbicide damage without safener−herbicide damage with safener Reduction[%]=(Reduction[Difference]*100)/herbicide damage without safener
c) Plant Species, Variety: HORVS Montoya, Safener (SAF): Isoxadifen-Ethyl

HORVS Montoya [3] = experiment: Safener seed treatment, pre-emergence herbicide, crop damage; format: in vivo, spring barley; design: key to Reduction [Difference]: % crop damage without safener minus % damage with safener; details: HER 15 g a.i./ha pre-emergence, 21 DAT (Final)
Method: as §1, §2, §3, §4, §5, §6, §7
Reduction[Difference]=herbicide damage without safener−herbicide damage with safener Reduction[%]=(Reduction[Difference]*100)/herbicide damage without safener b) Plant Species, Variety: HORVS Montoya, Safener (SAF): Isoxadifen-Ethyl

TRZAS Triso [4] = experiment: Tank-mix post-emergence crop damage, greenhouse, visual assessment; format: in vivo, spring wheat; details: 21 DAT
Method: as §8, §9, §10
5d) Plant Species, Variety: TRZAS Triso, Safener (SAF): Isoxadifen-Ethyl

[5] = HER 40 g a.i./ha pre-emergence, 26 DAT
[6] = HER 80 g a.i./ha pre-emergence, 14 DAT
[7] = HER 80 g a.i./ha pre-emergence, 26 DAT
[8] = HER 0.5 g a.i./ha + isoxadifen-ethyl 50 g a.i./ha
[9] = isoxadifen-ethyl 0.25 g a.i./kg seed
[10] = HER 0.5 g a.i./ha, isoxadifen-ethyl 50 g a.i./ha

C=CC1(C(=O)NC2C=CC(C(=O)OC)C2)CC(c2cc(F)cc(F)c2)=NO1 (stereo not drawn) [Example 1.26]
Reduction [%] (TRZAS Triso [1]; 11 DAT (Interim)): 31% | Reduction [Difference] (TRZAS Triso [1]; 11 DAT (Interim)): 20 | Reduction [%] (TRZAS Triso [1]; 21 DAT (Final)): 80% | Reduction [Difference] (TRZAS Triso [1]; 21 DAT (Final)): 60 | HER effect + SAF (TRZAS Triso [1]; 11 DAT (Interim)): 45% | HER effect + SAF (TRZAS Triso [1]; 21 DAT (Final)): 15% | HER effect (TRZAS Triso [1]; 11 DAT (Interim)): 65% | HER effect (TRZAS Triso [1]; 21 DAT (Final)): 75% | Reduction [%] (ZEAMA Sileno; [5]): 90% | Reduction [Difference] (ZEAMA Sileno; [5]): 45 | HER effect + SAF (ZEAMA Sileno; [5]): 5% | HER effect (ZEAMA Sileno; [5]): 50% | Reduction [%] (ZEAMA Sileno; [6]): 36% | Reduction [Difference] (ZEAMA Sileno; [6]): 25 | Reduction [%] (ZEAMA Sileno; [7]): 79% | Reduction [Difference] (ZEAMA Sileno; [7]): 55 | HER effect + SAF (ZEAMA Sileno; [6]): 45% | HER effect + SAF (ZEAMA Sileno; [7]): 15% | HER effect (ZEAMA Sileno; [6]): 70% | HER effect (ZEAMA Sileno; [7]): 70% | HER effect + SAF (HORVS Montoya [2]; [8]): 10% | Reduction [%] (HORVS Montoya [2]; HER 0.5 g a.i./ha): 75% | Reduction [Difference] (HORVS Montoya [2]; HER 0.5 g a.i./ha): 30 | HER effect (HORVS Montoya [2]; HER 0.5 g a.i./ha): 40% | HER effect + SAF (HORVS Montoya [2]; HER 2 g a.i./ha + isoxadifen-ethyl 50 g a.i./ha): 50% | Reduction [%] (HORVS Montoya [2]; HER 2 g a.i./ha): 29% | Reduction [Difference] (HORVS Montoya [2]; HER 2 g a.i./ha): 20 | HER effect (HORVS Montoya [2]; HER 2 g a.i./ha): 70% | Reduction [%] (HORVS Montoya [3]; [9]): 90% | Reduction [Difference] (HORVS Montoya [3]; [9]): 45 | HER effect + SAF (HORVS Montoya [3]; isoxadifen-ethyl seed treatment 0.25 g a.i./kg seed): 5% | HER effect (HORVS Montoya [3]; no safener): 50% | HER effect + SAF (TRZAS Triso [4]; [8]): 10% | Reduction [%] (TRZAS Triso [4]; [10]): 75% | Reduction [Difference] (TRZAS Triso [4]; [10]): 30 | HER effect (TRZAS Triso [4]; HER 0.5 g a.i./ha, no safener): 40%
